This is an account of results in US8598344B2, “CDKI pathway inhibitors and uses thereof” (Senex Biotechnology, priority 2009, dated 2013).

Molecules are shown by their SMILES.

T11 sequence (Q06187 whole entry): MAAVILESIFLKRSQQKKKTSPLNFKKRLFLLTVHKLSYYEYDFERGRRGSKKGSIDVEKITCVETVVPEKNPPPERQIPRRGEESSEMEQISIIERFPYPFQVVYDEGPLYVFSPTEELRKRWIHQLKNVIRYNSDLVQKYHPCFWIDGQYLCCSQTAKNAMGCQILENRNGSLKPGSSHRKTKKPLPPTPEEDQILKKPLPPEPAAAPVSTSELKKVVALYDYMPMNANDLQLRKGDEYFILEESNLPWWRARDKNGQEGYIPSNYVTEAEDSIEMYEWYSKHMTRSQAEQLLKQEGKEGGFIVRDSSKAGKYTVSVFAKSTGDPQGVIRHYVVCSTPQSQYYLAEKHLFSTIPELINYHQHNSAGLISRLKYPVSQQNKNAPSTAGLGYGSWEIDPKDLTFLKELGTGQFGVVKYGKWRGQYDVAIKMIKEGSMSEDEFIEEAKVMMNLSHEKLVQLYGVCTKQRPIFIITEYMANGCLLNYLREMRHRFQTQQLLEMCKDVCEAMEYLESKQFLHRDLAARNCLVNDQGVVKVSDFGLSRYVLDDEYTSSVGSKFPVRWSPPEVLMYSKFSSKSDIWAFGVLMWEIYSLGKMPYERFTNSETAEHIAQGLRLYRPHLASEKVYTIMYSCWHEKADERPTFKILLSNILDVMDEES
T12 sequence (P42336 whole entry I800L): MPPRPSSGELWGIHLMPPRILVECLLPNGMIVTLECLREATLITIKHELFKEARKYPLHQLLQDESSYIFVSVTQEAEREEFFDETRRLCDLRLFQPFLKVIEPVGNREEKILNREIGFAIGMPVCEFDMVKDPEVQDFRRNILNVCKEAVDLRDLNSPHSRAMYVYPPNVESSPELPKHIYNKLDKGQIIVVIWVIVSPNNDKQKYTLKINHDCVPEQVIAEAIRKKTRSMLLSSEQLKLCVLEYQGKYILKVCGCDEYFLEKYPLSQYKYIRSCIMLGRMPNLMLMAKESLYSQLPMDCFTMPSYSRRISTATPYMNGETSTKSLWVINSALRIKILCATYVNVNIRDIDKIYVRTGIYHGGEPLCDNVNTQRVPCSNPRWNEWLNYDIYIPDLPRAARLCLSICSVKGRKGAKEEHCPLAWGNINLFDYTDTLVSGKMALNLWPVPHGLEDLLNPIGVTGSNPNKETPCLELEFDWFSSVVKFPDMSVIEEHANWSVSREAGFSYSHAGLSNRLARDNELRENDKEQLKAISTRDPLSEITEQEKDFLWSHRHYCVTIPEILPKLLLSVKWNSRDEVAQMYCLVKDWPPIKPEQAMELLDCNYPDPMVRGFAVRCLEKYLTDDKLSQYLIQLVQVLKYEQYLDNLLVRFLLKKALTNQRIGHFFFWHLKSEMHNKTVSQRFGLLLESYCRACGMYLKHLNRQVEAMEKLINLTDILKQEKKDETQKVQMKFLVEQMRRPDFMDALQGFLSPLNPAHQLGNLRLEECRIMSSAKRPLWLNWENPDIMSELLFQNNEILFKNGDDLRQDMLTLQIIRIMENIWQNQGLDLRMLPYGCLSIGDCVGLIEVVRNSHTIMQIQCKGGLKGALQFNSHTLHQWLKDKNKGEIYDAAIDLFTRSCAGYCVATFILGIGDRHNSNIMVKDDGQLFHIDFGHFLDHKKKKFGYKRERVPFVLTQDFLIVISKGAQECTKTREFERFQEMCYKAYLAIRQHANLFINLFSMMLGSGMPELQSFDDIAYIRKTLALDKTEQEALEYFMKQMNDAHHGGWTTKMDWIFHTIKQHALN

The target of one test is T1, CSNK1G3 (Homo sapiens, UniProt Q9Y6M4).
T1 construct: purchased KinomeScan, a division of Ambit Biosciences
Kind of test: KinomeScan competition binding assay. Particulars: 10 μM compound. In outline:
(§1)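 Test compound competes with an immobilized, ATP-site-directed ligand for binding to DNA-tagged kinase. Kinase remaining on the ligand is quantified by qPCR of the DNA tag. Values are reported as percent of control binding or as binding constants (Kd).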
Regarding `N#Cc1ccc2ncnc(NCCc3ccccc3)c2c1` [compound 1], the “POC ligand binding, CSNK1G3” value was determined as 16 POC.

`N#Cc1ccc2ncnc(NCc3ccc(Cl)cc3)c2c1` [compound 20]: the “POC ligand binding, CSNK1G3” value was 82 POC.

Consider `COc1ccc2ncnc(NCCc3ccccc3)c2c1` [compound 44], for which the “POC ligand binding, CSNK1G3” value was 84 POC.

For the next test, the target named is T2, SLK (Homo sapiens, UniProt Q9H2G2).
T2 construct: purchased KinomeScan, a division of Ambit Biosciences
Nature of the test: KinomeScan competition binding assay. Particulars: 10 μM compound. In outline:
as §1
Regarding `N#Cc1ccc2ncnc(NCCc3ccccc3)c2c1` [compound 1], the “POC ligand binding, SLK” value was found to be 11 POC.

For `N#Cc1ccc2ncnc(NCc3ccc(Cl)cc3)c2c1` [compound 20], the “POC ligand binding, SLK” value worked out at 61 POC.

Regarding `COc1ccc2ncnc(NCCc3ccccc3)c2c1` [compound 44], the “POC ligand binding, SLK” value was 43 POC.

For the next test, the target named is T3, CLK4 (Homo sapiens, UniProt Q9HAZ1).
T3 construct: purchased KinomeScan, a division of Ambit Biosciences
Kind of test: KinomeScan competition binding assay. Particulars: 10 μM compound. Put shortly:
as §1
On to `N#Cc1ccc2ncnc(NCCc3ccccc3)c2c1` [compound 1], for which the “POC ligand binding, CLK4” value was determined as 8 POC.

With `N#Cc1ccc2ncnc(NCc3ccc(Cl)cc3)c2c1` [compound 20], the “POC ligand binding, CLK4” value came to 11 POC.

Regarding `COc1ccc2ncnc(NCCc3ccccc3)c2c1` [compound 44], the “POC ligand binding, CLK4” value came to 17 POC.

In a further test the target is T4, IRAK1 (Homo sapiens, UniProt P51617).
T4 construct: purchased KinomeScan, a division of Ambit Biosciences
T4 sequence (P51617 whole entry): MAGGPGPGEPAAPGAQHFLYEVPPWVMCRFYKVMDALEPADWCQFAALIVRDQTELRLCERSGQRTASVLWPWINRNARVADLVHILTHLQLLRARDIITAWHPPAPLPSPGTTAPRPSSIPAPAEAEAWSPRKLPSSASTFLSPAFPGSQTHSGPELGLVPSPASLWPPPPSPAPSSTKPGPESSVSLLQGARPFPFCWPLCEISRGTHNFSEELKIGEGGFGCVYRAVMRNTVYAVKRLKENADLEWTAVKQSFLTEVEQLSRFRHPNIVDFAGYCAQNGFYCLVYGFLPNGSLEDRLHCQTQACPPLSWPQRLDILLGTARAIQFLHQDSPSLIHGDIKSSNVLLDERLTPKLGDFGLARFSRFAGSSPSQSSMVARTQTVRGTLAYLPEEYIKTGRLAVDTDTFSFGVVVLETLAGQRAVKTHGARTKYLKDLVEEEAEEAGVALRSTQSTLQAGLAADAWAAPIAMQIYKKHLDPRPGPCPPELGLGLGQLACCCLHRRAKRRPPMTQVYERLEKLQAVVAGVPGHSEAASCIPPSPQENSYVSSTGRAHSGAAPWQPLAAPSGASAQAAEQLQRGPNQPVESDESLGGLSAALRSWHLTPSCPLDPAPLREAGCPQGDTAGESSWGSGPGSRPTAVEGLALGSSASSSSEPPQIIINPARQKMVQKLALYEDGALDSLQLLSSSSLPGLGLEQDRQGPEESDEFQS
Nature of the test: KinomeScan competition binding assay. The settings on record: 10 μM compound. In outline: as §1
With `N#Cc1ccc2ncnc(NCCc3ccccc3)c2c1` [compound 1], the “POC ligand binding, IRAK1” value came to 8.2 POC.

Regarding `N#Cc1ccc2ncnc(NCc3ccc(Cl)cc3)c2c1` [compound 20], the “POC ligand binding, IRAK1” value is listed as 26 POC.

On to `COc1ccc2ncnc(NCCc3ccccc3)c2c1` [compound 44], for which the “POC ligand binding, IRAK1” value stood at 64 POC.

The next test has as its target T5, MEK5 (Homo sapiens, UniProt Q13163).
T5 construct: purchased KinomeScan, a division of Ambit Biosciences
T5 sequence (Q13163 1-448): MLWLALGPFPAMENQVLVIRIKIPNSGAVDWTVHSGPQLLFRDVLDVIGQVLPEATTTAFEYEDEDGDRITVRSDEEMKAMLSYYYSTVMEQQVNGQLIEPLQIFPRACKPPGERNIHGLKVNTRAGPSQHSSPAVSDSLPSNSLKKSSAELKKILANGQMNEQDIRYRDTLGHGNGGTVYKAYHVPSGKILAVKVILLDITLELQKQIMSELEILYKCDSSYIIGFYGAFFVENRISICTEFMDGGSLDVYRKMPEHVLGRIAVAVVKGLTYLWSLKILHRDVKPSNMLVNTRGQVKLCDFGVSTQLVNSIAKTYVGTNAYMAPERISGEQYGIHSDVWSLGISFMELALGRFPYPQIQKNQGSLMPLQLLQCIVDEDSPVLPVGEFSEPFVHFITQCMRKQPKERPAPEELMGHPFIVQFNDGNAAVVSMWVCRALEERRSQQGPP
Kind of test: KinomeScan competition binding assay. The settings on record: 10 μM compound. Put shortly: as §1
Consider `N#Cc1ccc2ncnc(NCCc3ccccc3)c2c1` [compound 1], for which the “POC ligand binding, MEK5” value was 18 POC.

With `N#Cc1ccc2ncnc(NCc3ccc(Cl)cc3)c2c1` [compound 20], the “POC ligand binding, MEK5” value is given as 62 POC.

As for `COc1ccc2ncnc(NCCc3ccccc3)c2c1` [compound 44], the “POC ligand binding, MEK5” value is reported as 59 POC.

The next test deals with T6, EGFR (G719C) (Homo sapiens, UniProt P00533, G719C).
T6 construct: purchased KinomeScan, a division of Ambit Biosciences
Nature of the test: KinomeScan competition binding assay. The settings on record: 10 μM compound. Put shortly:
as §1
`N#Cc1ccc2ncnc(NCCc3ccccc3)c2c1` [compound 1]: the “POC ligand binding, EGFR (G719C)” value is 13 POC.

As to `N#Cc1ccc2ncnc(NCc3ccc(Cl)cc3)c2c1` [compound 20], the “POC ligand binding, EGFR (G719C)” value was 34 POC.

Turning to `COc1ccc2ncnc(NCCc3ccccc3)c2c1` [compound 44], the “POC ligand binding, EGFR (G719C)” value was found to be 0.85 POC.

The next test addresses T7, MAPKAPK5 (Homo sapiens, UniProt Q8IW41).
T7 construct: purchased KinomeScan, a division of Ambit Biosciences
T7 sequence (Q8IW41 1-473): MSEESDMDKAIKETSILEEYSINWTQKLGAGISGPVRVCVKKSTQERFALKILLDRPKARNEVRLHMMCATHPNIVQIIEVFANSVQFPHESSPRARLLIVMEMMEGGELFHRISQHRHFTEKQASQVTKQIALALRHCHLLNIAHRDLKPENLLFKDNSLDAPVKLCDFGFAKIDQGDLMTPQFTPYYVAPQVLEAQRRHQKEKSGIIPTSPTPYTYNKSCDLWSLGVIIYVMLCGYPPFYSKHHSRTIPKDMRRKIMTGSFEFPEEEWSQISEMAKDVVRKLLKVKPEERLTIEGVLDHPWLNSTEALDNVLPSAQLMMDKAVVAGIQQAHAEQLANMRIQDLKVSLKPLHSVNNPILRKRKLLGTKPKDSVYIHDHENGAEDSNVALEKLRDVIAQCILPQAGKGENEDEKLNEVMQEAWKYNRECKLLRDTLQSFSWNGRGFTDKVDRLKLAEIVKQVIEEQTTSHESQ
Kind of test: KinomeScan competition binding assay. Particulars: 10 μM compound. In outline:
as §1
Turning to `N#Cc1ccc2ncnc(NCCc3ccccc3)c2c1` [compound 1], the “POC ligand binding, MAPKAPK5” value was 15 POC.

As to `N#Cc1ccc2ncnc(NCc3ccc(Cl)cc3)c2c1` [compound 20], the “POC ligand binding, MAPKAPK5” value is 92 POC.

Consider `COc1ccc2ncnc(NCCc3ccccc3)c2c1` [compound 44], for which the “POC ligand binding, MAPKAPK5” value is listed as 94 POC.

The next test addresses T8, HIPK3 (Homo sapiens, UniProt Q9H422).
T8 construct: purchased KinomeScan, a division of Ambit Biosciences
Nature of the test: KinomeScan competition binding assay. The settings on record: 10 μM compound. Put shortly: as §1
As for `N#Cc1ccc2ncnc(NCCc3ccccc3)c2c1` [compound 1], the “POC ligand binding, HIPK3” value stood at 18 POC.

In the case of `N#Cc1ccc2ncnc(NCc3ccc(Cl)cc3)c2c1` [compound 20], the “POC ligand binding, HIPK3” value came to 28 POC.

For `COc1ccc2ncnc(NCCc3ccccc3)c2c1` [compound 44], the “POC ligand binding, HIPK3” value is given as 53 POC.

The target of a further test is T9, CIT (Homo sapiens, UniProt O14578).
T9 construct: purchased KinomeScan, a division of Ambit Biosciences
T9 sequence (O14578 whole entry): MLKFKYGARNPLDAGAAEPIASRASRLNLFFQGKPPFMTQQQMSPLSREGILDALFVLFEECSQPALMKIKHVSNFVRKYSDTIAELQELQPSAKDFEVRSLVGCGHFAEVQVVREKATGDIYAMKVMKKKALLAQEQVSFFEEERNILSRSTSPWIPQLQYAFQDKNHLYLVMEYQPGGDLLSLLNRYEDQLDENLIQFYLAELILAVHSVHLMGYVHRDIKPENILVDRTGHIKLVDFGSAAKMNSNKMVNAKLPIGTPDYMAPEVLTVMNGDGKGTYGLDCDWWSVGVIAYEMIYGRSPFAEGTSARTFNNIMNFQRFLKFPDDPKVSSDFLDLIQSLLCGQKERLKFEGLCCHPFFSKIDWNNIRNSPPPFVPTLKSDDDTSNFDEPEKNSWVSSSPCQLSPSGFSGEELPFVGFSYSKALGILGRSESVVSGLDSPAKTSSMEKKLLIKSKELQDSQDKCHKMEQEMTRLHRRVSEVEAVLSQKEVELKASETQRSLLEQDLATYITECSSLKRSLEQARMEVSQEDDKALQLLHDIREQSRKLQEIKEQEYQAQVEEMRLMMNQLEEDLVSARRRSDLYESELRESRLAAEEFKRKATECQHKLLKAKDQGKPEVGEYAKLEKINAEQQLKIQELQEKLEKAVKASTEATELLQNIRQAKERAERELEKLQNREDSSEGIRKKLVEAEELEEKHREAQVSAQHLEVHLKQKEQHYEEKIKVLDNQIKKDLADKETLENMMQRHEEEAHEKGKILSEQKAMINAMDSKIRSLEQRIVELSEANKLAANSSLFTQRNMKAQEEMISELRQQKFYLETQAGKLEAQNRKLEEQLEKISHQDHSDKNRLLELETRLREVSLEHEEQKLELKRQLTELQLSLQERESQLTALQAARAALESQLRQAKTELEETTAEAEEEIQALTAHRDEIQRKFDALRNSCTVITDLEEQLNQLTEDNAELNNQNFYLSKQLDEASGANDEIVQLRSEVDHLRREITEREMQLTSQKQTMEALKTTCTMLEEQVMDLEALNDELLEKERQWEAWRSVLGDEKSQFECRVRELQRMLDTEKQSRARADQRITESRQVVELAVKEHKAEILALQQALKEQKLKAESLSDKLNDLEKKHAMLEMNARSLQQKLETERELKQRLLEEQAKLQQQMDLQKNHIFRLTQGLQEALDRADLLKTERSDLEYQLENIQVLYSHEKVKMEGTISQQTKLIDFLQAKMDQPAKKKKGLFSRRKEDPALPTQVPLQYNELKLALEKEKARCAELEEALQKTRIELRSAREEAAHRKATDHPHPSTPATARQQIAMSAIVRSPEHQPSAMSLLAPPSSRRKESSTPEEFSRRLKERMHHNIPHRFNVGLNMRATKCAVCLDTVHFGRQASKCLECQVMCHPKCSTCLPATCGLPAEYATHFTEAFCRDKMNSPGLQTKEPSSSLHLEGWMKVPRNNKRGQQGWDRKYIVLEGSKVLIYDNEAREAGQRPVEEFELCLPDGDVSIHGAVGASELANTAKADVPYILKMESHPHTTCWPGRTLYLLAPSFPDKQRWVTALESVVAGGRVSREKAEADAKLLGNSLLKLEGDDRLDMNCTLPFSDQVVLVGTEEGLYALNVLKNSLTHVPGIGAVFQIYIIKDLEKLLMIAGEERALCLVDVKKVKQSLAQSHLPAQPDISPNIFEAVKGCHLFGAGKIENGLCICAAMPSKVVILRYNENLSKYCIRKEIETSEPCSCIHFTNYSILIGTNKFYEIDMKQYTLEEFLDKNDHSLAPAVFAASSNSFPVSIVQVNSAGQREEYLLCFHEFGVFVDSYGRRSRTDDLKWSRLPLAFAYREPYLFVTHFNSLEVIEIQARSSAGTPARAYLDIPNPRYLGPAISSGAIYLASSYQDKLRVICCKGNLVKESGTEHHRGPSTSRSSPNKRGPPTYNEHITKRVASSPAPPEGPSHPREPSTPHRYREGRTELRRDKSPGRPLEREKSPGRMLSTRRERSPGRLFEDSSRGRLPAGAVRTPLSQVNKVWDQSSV
Kind of test: KinomeScan competition binding assay. Particulars: 10 μM compound. In outline: as §1
`N#Cc1ccc2ncnc(NCCc3ccccc3)c2c1` [compound 1]: the “POC ligand binding, CIT” value is given as 15 POC.

`N#Cc1ccc2ncnc(NCc3ccc(Cl)cc3)c2c1` [compound 20]: the “POC ligand binding, CIT” value came to 7.9 POC.

With `COc1ccc2ncnc(NCCc3ccccc3)c2c1` [compound 44], the “POC ligand binding, CIT” value is given as 18 POC.

The target in a further test is T10, HIPK2 (Homo sapiens, UniProt Q9H2X6).
T10 construct: purchased KinomeScan, a division of Ambit Biosciences
Kind of test: KinomeScan competition binding assay. The settings on record: 10 μM compound. Put shortly:
as §1
For the compound `N#Cc1ccc2ncnc(NCCc3ccccc3)c2c1` [compound 1], the “POC ligand binding, HIPK2” value was 18 POC.

In the case of `N#Cc1ccc2ncnc(NCc3ccc(Cl)cc3)c2c1` [compound 20], the “POC ligand binding, HIPK2” value is recorded as 28 POC.

With `COc1ccc2ncnc(NCCc3ccccc3)c2c1` [compound 44], the “POC ligand binding, HIPK2” value was 62 POC.

A further test addresses T11, BTK (Homo sapiens, UniProt Q06187).
T11 construct: purchased KinomeScan, a division of Ambit Biosciences
Nature of the test: KinomeScan competition binding assay. Particulars: 10 μM compound. In outline: as §1
Regarding `N#Cc1ccc2ncnc(NCCc3ccccc3)c2c1` [compound 1], the “POC ligand binding, BTK” value came to 15 POC.

On to `N#Cc1ccc2ncnc(NCc3ccc(Cl)cc3)c2c1` [compound 20], for which the “POC ligand binding, BTK” value was 100 POC.

Turning to `COc1ccc2ncnc(NCCc3ccccc3)c2c1` [compound 44], the “POC ligand binding, BTK” value is reported as 100 POC.

Another test concerns the target T12, PIK3CA (I800L) (Homo sapiens, UniProt P42336, I800L).
T12 construct: purchased KinomeScan, a division of Ambit Biosciences
Kind of test: KinomeScan competition binding assay. The settings on record: 10 μM compound. In outline:
as §1
Consider `N#Cc1ccc2ncnc(NCCc3ccccc3)c2c1` [compound 1], for which the “POC ligand binding, PIK3CA (I800L)” value is 17 POC.

Regarding `N#Cc1ccc2ncnc(NCc3ccc(Cl)cc3)c2c1` [compound 20], the “POC ligand binding, PIK3CA (I800L)” value came out at 73 POC.

As for `COc1ccc2ncnc(NCCc3ccccc3)c2c1` [compound 44], the “POC ligand binding, PIK3CA (I800L)” value was found to be 86 POC.

The target in a further test is T13, CDK8 (Homo sapiens, UniProt P49336).
T13 construct: purchased KinomeScan, a division of Ambit Biosciences
Nature of the test: KinomeScan competition binding assay. The settings on record: 10 μM. Put shortly:
as §1
In the case of `N#Cc1ccc2ncnc(NCCc3ccccc3)c2c1` [compound 1], the “inhibition of CDK8” value was over 99%.

Still in this test, the particulars now being: 10 μM compound.
In the case of `N#Cc1ccc2ncnc(NCc3ccc(Cl)cc3)c2c1` [compound 20], the “POC ligand binding, CDK8” value was found to be 0.15 POC.

As to `COc1ccc2ncnc(NCCc3ccccc3)c2c1` [compound 44], the “POC ligand binding, CDK8” value was determined as 24 POC.

The test is the same for the next values; noted with them: read-out: CDK8 inhibition (Kd).
By Kd is commonly meant a measure of binding affinity in units of concentration. With `N#Cc1ccc2ncnc(NCCc3ccccc3)c2c1` [compound 1], the Kd came to 830 nM.

For `N#Cc1ccc2ncnc(NCc3ccc(Cl)cc3)c2c1` [compound 20], the dissociation constant Kd was determined as 240 nM.

The next test has as its target T14, PIP5K2C (Homo sapiens, UniProt Q8TBX8).
T14 construct: purchased KinomeScan, a division of Ambit Biosciences
T14 sequence (Q8TBX8 1-421): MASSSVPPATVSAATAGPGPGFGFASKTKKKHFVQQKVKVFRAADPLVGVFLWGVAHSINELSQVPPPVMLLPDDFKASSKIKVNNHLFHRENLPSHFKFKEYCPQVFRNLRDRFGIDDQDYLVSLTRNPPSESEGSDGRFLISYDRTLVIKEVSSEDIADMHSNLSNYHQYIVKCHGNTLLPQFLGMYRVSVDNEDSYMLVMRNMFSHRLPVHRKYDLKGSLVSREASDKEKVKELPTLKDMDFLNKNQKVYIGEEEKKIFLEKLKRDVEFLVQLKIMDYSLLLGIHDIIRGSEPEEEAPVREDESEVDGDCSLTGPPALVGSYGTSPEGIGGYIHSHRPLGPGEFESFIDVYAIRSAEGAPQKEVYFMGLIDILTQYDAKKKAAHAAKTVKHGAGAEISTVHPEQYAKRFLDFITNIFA
Nature of the test: KinomeScan competition binding assay. The settings on record: 10 μM compound. Put shortly:
as §1
Consider `N#Cc1ccc2ncnc(NCCc3ccccc3)c2c1` [compound 1], for which the “POC ligand binding, PIP5K2C” value was 1.2 POC.

As to `N#Cc1ccc2ncnc(NCc3ccc(Cl)cc3)c2c1` [compound 20], the “POC ligand binding, PIP5K2C” value worked out at 2.4 POC.

Take `COc1ccc2ncnc(NCCc3ccccc3)c2c1` [compound 44]: the “POC ligand binding, PIP5K2C” value is given as 59 POC.

Another test deals with T15, CSNK1G2 (Homo sapiens, UniProt P78368).
T15 construct: purchased KinomeScan, a division of Ambit Biosciences
T15 sequence (P78368 whole entry): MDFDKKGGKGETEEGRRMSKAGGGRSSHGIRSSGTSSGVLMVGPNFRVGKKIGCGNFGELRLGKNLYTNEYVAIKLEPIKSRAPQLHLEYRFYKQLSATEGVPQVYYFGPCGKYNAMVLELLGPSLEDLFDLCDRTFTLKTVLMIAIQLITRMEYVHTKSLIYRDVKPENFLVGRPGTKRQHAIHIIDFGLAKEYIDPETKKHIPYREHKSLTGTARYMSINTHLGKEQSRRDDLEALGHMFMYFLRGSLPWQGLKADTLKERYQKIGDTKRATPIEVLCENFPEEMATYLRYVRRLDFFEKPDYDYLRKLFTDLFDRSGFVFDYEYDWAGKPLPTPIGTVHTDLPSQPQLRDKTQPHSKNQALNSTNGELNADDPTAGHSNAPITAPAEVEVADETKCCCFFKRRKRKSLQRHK
Nature of the test: KinomeScan competition binding assay. The settings on record: 10 μM compound. Put shortly:
as §1
For `N#Cc1ccc2ncnc(NCCc3ccccc3)c2c1` [compound 1], the “POC ligand binding, CSNK1G2” value came out at 16 POC.

With `N#Cc1ccc2ncnc(NCc3ccc(Cl)cc3)c2c1` [compound 20], the “POC ligand binding, CSNK1G2” value is reported as 62 POC.

In the case of `COc1ccc2ncnc(NCCc3ccccc3)c2c1` [compound 44], the “POC ligand binding, CSNK1G2” value stood at 80 POC.

In the next test the target is T16, CLK1 (Homo sapiens, UniProt P49759).
T16 construct: purchased KinomeScan, a division of Ambit Biosciences
Kind of test: KinomeScan competition binding assay. Particulars: 10 μM compound. In outline: as §1
On to `N#Cc1ccc2ncnc(NCCc3ccccc3)c2c1` [compound 1], for which the “POC ligand binding, CLK1” value is 4.2 POC.

As to `N#Cc1ccc2ncnc(NCc3ccc(Cl)cc3)c2c1` [compound 20], the “POC ligand binding, CLK1” value was found to be 12 POC.

`COc1ccc2ncnc(NCCc3ccccc3)c2c1` [compound 44]: the “POC ligand binding, CLK1” value was 17 POC.
